Results reported in ChEMBL document CHEMBL5696442, “Discovery of type II inhibitors of TGFβ-activated kinase 1 (TAK1) and mitogen-activated protein kinase kinase kinase kinase 2 (MAP4K2)” (J Med Chem, 2015).

Experiments:
[1] = biological target: Tyrosine-protein kinase CSK (Homo sapiens, UniProt P41240); assay: Inhibition of CSK ACT labeling site in human A-375 cells at 5 uM by KiNativ Profiling analysis relative to control; type: cell-based
[2] = biological target: p38 delta/gamma (Homo sapiens) (UniProt O15264+P53778); assay: Inhibition of p38d/g K2 labeling site in human Huh-7 cells at 1 uM by KiNativ Profiling analysis relative to control; type: cell-based
[3] = biological target: T1, Dual specificity mitogen-activated protein kinase kinase 6 (Homo sapiens) (UniProt P52564); assay: Inhibition of MAP2K6 ACT labeling site in human Huh-7 cells at 10 uM by KiNativ Profiling analysis relative to control; type: cell-based
T1 sequence (whole entry): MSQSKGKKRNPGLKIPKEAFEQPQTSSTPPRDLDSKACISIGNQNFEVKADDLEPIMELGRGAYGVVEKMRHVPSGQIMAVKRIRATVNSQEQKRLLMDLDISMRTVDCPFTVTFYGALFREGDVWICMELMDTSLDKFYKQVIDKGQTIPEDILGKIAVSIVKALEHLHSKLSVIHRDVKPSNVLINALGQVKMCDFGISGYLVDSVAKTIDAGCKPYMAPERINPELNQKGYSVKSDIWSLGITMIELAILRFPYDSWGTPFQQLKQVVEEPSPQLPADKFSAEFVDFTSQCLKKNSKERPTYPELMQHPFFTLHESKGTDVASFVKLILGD

[4] = biological target: Mitogen-activated protein kinase kinase kinase kinase 4 (Homo sapiens, UniProt O95819); assay: Inhibition of ZC1/HGK K1 labeling site harbouring TGQLAAIKVMDVTEDEEEEIKLEINMLKK in human Huh-7 cells at 1 uM by KiNativ Profiling analysis relative to control; type: cell-based
[5] = biological target: Serine/threonine-protein kinase 38-like (Homo sapiens) (UniProt Q9Y2H1); assay: Inhibition of NDR2 Lys2 labeling site in human A-375 cells at 5 uM by KiNativ Profiling analysis relative to control; type: cell-based
Sequence of Serine/threonine-protein kinase 38-like (Homo sapiens) (Q9Y2H1 2-464 limits assumed): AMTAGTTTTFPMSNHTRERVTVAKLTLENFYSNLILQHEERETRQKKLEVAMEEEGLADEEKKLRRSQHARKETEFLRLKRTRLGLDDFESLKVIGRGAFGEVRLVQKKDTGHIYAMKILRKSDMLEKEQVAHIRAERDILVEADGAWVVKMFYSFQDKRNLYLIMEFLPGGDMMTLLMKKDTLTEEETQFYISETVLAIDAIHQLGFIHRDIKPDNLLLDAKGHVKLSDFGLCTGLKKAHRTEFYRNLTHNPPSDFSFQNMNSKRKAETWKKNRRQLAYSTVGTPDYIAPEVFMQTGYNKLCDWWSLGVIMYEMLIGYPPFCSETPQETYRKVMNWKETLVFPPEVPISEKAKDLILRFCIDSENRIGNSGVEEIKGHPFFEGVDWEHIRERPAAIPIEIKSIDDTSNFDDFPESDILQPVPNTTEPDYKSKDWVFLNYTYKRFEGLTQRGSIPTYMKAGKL

[6] = biological target: NT-3 growth factor receptor (Homo sapiens) (UniProt Q16288); assay: Inhibition of TRKC (unknown origin) at 1 uM by Ambit Kinomescan binding assay relative to control
Sequence of NT-3 growth factor receptor (Homo sapiens) (Q16288 32-839 limits assumed): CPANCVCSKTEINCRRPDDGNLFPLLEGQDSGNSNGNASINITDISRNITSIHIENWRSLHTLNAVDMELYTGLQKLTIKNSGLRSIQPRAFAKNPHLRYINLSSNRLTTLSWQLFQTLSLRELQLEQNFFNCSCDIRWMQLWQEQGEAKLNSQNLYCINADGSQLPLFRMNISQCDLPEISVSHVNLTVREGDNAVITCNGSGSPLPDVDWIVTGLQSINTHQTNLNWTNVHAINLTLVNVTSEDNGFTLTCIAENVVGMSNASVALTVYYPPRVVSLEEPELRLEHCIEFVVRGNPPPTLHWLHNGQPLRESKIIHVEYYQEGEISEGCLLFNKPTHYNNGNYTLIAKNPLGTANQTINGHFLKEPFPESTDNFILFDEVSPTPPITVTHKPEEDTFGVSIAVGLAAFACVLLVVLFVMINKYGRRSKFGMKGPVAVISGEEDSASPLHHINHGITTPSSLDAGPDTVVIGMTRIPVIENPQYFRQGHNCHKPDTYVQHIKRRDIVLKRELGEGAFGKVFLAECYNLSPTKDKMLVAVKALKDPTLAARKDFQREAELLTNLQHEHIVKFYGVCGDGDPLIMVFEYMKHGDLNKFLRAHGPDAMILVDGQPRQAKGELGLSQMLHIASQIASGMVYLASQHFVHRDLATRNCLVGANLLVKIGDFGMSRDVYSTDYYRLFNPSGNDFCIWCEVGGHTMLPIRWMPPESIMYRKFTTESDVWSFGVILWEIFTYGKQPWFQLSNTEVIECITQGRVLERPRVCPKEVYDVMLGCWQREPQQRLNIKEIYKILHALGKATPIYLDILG

[7] = biological target: T2, Atrial natriuretic peptide receptor 2 (Homo sapiens) (UniProt P20594); assay: Inhibition of ANPb Lys2 labeling site in human A-375 cells at 0.05 uM by KiNativ Profiling analysis relative to control; type: cell-based
T2 sequence (whole entry): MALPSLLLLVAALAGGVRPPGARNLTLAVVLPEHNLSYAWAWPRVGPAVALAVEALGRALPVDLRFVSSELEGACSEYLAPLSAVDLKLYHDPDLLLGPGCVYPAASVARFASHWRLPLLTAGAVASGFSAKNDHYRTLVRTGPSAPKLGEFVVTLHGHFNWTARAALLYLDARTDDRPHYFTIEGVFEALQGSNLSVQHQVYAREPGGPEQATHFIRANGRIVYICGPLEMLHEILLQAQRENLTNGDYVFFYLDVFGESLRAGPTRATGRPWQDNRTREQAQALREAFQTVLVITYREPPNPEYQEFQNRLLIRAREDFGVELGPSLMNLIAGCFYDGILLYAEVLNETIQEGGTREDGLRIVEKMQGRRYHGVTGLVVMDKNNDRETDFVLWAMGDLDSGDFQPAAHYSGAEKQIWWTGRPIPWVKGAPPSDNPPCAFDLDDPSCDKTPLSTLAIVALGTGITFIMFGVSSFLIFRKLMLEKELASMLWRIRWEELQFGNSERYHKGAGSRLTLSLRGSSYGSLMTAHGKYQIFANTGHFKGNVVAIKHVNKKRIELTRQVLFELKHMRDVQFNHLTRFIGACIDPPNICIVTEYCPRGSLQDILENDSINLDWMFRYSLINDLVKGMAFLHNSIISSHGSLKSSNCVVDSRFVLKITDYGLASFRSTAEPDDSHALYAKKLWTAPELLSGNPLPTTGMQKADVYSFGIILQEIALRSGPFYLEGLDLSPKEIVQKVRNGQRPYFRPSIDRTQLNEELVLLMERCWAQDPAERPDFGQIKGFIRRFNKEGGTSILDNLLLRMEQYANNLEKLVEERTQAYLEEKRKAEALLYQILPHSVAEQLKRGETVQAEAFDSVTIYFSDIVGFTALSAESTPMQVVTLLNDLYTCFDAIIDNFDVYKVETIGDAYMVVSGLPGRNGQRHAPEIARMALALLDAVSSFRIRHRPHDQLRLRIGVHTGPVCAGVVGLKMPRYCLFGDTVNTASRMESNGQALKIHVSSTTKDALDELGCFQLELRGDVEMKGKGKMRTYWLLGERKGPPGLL

[8] = biological target: T3, Aurora kinase A (Homo sapiens) (UniProt O14965); assay: Inhibition of AurA Lys2 labeling site in human A-375 cells at 0.05 uM by KiNativ Profiling analysis relative to control; type: cell-based
T3 sequence (whole entry): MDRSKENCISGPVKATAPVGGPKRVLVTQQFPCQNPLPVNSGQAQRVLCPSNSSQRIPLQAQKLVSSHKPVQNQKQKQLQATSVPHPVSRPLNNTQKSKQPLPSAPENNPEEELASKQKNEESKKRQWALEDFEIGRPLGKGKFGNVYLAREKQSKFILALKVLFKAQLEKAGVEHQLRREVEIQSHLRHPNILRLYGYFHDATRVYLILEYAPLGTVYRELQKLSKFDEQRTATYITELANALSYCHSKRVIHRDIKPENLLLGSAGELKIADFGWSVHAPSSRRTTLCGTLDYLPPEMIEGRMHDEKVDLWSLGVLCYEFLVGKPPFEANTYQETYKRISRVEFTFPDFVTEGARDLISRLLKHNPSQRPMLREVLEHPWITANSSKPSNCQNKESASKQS

[9] = test system: Hepatocyte growth factor receptor (Homo sapiens), P08581 [M1250T]; assay: Inhibition of MET M1250T mutant (unknown origin) at 1 uM by Ambit Kinomescan binding assay relative to control
Sequence of Hepatocyte growth factor receptor (Homo sapiens), P08581 [M1250T] (P08581 whole entry M1250T, canonical isoform): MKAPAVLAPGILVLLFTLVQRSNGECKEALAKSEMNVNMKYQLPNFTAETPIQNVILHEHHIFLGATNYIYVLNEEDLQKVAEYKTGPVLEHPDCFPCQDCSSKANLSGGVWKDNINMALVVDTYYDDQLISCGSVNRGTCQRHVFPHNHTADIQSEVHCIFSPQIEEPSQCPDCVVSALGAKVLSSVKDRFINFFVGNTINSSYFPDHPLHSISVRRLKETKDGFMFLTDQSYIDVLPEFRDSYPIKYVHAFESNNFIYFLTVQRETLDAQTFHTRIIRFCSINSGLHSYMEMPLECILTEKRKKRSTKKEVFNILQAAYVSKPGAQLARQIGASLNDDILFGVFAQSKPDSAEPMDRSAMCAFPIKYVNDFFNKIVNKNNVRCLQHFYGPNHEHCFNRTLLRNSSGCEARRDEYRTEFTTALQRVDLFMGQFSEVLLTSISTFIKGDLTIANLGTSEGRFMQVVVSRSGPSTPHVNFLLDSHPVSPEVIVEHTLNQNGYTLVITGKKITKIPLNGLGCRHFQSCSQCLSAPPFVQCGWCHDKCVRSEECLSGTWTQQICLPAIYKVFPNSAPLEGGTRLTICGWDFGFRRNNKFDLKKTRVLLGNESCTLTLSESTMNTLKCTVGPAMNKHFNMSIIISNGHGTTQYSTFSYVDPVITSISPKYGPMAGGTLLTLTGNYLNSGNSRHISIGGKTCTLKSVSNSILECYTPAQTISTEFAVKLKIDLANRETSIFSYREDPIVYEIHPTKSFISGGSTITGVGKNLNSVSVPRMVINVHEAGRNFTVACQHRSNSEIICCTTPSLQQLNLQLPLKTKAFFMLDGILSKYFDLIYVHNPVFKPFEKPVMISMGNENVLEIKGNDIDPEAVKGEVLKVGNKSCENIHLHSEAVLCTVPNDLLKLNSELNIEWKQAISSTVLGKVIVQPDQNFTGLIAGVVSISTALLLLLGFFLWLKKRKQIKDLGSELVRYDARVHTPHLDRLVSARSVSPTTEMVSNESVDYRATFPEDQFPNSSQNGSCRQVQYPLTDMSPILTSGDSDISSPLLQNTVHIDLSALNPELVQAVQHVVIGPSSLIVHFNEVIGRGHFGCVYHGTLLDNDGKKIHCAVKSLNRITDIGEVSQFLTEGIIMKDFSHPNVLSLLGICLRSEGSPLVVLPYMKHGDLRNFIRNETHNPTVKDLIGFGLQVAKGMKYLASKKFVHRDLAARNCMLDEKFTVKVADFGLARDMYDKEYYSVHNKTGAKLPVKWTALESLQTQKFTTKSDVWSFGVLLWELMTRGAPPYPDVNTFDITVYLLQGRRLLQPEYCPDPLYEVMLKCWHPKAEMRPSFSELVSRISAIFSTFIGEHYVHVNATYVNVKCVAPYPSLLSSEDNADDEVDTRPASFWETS

[10] = biological target: Phosphatidylinositol 4,5-bisphosphate 3-kinase catalytic subunit alpha isoform (Homo sapiens) (UniProt P42336); assay: Inhibition of PIK3CA ATP labeling site in human Huh-7 cell lysate at 1 uM by KiNativ Profiling analysis relative to control; type: subcellular
[11] = Inhibition of KHS1 Lys2 labeling site harbouring DIKGANILLTDHGDVK in human Huh-7 cell lysate at 1 uM by KiNativ Profiling analysis relative to control; conditions: condition cancer
[12] = biological target: Cyclin-dependent kinase 17 (Homo sapiens) (UniProt Q00537); assay: Inhibition of PCTAIRE2 Lys1 labeling site in human Huh-7 cells at 1 uM by KiNativ Profiling analysis relative to control; type: cell-based
Sequence of Cyclin-dependent kinase 17 (Homo sapiens) (Q00537 whole entry, looked up): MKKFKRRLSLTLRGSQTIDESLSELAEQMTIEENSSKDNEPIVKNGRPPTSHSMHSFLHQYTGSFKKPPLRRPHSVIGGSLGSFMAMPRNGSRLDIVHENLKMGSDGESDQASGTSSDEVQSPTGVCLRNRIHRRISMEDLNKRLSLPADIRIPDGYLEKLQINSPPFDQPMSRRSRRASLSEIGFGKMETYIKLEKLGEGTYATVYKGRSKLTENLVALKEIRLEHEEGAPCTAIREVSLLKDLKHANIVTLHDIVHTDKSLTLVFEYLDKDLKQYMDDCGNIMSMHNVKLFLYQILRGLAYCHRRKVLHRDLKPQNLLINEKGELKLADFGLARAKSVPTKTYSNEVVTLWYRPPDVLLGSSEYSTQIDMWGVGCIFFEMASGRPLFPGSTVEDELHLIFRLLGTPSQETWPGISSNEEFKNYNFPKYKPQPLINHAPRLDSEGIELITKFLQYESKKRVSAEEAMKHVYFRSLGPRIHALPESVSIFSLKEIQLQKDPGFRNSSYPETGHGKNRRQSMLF

[13] = biological target: Mitogen-activated protein kinase kinase kinase 4 (Homo sapiens) (UniProt Q9Y6R4); assay: Inhibition of MAP3K4 Lys2 labeling site in human Huh-7 cell lysate at 1 uM by KiNativ Profiling analysis relative to control; type: subcellular
Sequence of Mitogen-activated protein kinase kinase kinase 4 (Homo sapiens) (Q9Y6R4 whole entry): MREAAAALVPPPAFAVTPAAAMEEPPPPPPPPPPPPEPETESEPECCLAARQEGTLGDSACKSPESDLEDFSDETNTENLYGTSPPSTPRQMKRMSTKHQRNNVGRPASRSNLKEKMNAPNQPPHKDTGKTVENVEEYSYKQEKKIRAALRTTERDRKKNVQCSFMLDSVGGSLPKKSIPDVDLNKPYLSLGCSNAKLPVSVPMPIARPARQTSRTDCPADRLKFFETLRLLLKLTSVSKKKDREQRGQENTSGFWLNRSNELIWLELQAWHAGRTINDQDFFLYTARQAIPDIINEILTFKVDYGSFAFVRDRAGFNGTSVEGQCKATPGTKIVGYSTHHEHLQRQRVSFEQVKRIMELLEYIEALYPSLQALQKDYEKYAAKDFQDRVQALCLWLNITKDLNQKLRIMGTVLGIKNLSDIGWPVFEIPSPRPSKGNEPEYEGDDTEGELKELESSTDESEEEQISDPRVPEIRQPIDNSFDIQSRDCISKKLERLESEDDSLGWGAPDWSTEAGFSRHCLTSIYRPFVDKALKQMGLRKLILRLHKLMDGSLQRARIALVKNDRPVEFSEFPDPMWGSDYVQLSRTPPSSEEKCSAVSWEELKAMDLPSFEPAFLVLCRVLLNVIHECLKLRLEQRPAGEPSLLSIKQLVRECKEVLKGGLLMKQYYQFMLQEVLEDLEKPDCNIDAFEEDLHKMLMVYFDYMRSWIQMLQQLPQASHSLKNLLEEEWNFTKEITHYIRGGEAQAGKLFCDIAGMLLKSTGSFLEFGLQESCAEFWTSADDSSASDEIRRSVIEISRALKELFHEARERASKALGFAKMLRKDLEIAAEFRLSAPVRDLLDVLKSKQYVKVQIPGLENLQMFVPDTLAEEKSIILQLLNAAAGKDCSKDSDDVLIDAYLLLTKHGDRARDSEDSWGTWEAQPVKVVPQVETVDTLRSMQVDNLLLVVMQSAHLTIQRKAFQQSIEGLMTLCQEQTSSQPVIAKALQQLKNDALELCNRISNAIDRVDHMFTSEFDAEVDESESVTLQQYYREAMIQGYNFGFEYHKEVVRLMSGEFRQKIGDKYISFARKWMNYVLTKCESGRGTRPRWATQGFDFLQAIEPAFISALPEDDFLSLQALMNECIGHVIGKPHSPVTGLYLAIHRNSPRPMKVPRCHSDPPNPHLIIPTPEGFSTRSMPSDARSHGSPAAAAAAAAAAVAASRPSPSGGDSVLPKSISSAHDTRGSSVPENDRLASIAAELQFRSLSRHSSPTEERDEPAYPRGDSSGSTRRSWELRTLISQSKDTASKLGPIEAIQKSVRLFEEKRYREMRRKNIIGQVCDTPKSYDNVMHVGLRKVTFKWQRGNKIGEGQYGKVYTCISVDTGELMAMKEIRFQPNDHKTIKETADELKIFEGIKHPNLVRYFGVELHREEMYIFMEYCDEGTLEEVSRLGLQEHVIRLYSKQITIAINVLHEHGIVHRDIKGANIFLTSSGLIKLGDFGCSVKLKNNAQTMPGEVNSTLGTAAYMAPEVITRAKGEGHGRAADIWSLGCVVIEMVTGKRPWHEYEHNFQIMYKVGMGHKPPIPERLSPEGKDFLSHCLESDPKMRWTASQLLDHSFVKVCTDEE

[14] = biological target: Microtubule-associated serine/threonine-protein kinase 1 (Homo sapiens) (UniProt Q9Y2H9); assay: Inhibition of MAST1 Lys2 labeling site in human Huh-7 cell lysate at 1 uM by KiNativ Profiling analysis relative to control

SMILES: CCN1CCN(Cc2ccc(NC(=O)c3ccc(C)c(Oc4ccnc5[nH]ccc45)c3)cc2C(F)(F)F)CC1
- inhibition [1]: 57.7%
- inhibition [2]: 25.2%
- inhibition [3]: 15.4%
- inhibition [4]: 19.2%

SMILES: CCN1CCN(Cc2ccc(NC(=O)c3ccc(C)c(/C=C/c4cnc5[nH]ccc5c4OC)c3)cc2C(F)(F)F)CC1
- inhibition [5]: 20.9%
- inhibition [6]: 47%
- inhibition [7]: -8.7%
- inhibition [8]: -9.1%
- inhibition [9]: 74%

SMILES: CNc1cc(Oc2cc(C(=O)Nc3cc(N4CCN(C)CC4)cc(C(F)(F)F)c3)ccc2C)ncn1
- inhibition [10]: 12.4%
- inhibition at 1 µM [11]: 0.5%
- inhibition [12]: 12%
- inhibition [13]: 0.5%
- inhibition [14]: 7.2%
